Laboratory results as given in patent US11866707B2, “Use of non-coding RNA SNHG17 as biomarker and therapeutic target” (ZHEJIANG CANCER HOSPITAL, priority 2022, dated 2024).

Tests used:
[1] = system: SNHG17-overexpressing breast cancer cells (MCF-7); experiment: Plate colony formation experiment, fulvestrant resistance of SNHG17-overexpressing cells; format: cell-based, human; conditions: medium containing 6 μmol/L fulvestrant, 15 days; SNHG17-overexpressing cells vs SNHG17-overexpressing control cells (FIG. 4)
Experimental: The above-mentioned SNHG17-overexpressing control breast cancer cells and SNHG17-overexpressing breast cancer cells were selected for experiments to detect the drug resistance to fulvestrant. 1000 well-grown cells were inoculated into a culture plate (diameter 60 mm) containing DMEM complete medium, then gently shook the culture plate to disperse the cells evenly. The cells were incubated at 37° C., 5V/V % CO2 for 15 days, and replaced complete medium every 3 days. When colonies were visible to the naked eye in the culture dish, the culture was terminated and the culture medium was discarded. After that, the cells were carefully washed twice by PBS and dried. Methanol was used for anchor cells for 15 min, then the methanol was discarded and cells were air-dried. Cells were stained with Giemsa staining solution (purchased from Merck) for 10 min, then the staining solution was slowly washed away with running water, and cells were air-dried. Experiments were divided into blank group (SNHG17-overexpressing control breast cancer stable cells, medium containing 6 μmol/L DMSO), control group (SNHG17-overexpressing control breast cancer cells, medium containing 6 μmol/L fulvestrant), overexpression group (SNHG17-overexpressing breast cancer cells, medium containing 6 μmol/L fulvestrant) 3 groups. […]

[2] = system: SNHG17-overexpressing breast cancer cells (MCF-7); experiment: Sensitivity detection of breast cancer cells to fulvestrant (MTT); format: cell-based, human; conditions: fulvestrant 2, 4, 8, 16 μmol/L, 48 h, SNHG17-overexpressing cells vs control cells (FIG. 5)
Experimental: MCF-7 and SNHG17 overexpressing breast cancer cells in the logarithmic growth phase were inoculated into 96-well plates (with DMEM complete medium) at a density of 3000 cells per well. Then cells were cultured in a 37° C. 5V/V % CO2 incubator until the cells adhered to the plates. Then added fulvestrant respectively, and the final concentration was 0 (cell control group), 2, 4, 8, and 16 μmol/L. Each concentration was set in 4 duplicate wells, and a blank control group was set at the same time. After being cultured for 48 hours in a 37° C., 5V/V % CO2 incubator, 20 μL of MTT (5 g/L) solution was added to each well. After culturing for 4 hours, discarded the medium and added triple solution (10 g SDS, 5 mL of isobutanol, 0.1 mL of 10M hydrochloric acid, and ddH2O to make a 100 mL solution) and incubated overnight. Then the absorbance (A570 nm) value was measured at 570 nm with an enzyme calibration. The triple solution was used as a blank control group to detect the cells' survival rate. Growth inhibition rate (%)=(control group A570 nm—experimental group A570 nm)/cell control group A570 nm×100%. The growth inhibition rate of fulvestrant on breast cancer cells is shown in FIG. 5, wherein C stands for SNHG17-overexpressing control breast cancer cells, D stands for SNHG17-overexpressing breast cancer cells, *P<0.05, **P<0.01 indicates the data had statistical significance.

C[C@]12CC[C@@H]3c4ccc(O)cc4C[C@@H](CCCCCCCCC[S+]([O-])CCCC(F)(F)C(F)(F)F)[C@H]3[C@@H]1CC[C@@H]2O (some centres unmarked) [fulvestrant]
number of colonies formed [1]: greater than that of SNHG17-overexpressing control breast cancer cells | growth inhibition rate of fulvestrant on breast cancer cells [2]: significantly greater than that in SNHG17-overexpressing control breast cancer cells
